Legend:
Experiment in all cases: biochemical
Set-up in all cases: University of Dundee kinase panel, percent inhibition of phosphorylation at 1 uM RAFi, ATP at Km
Conditions in all cases: read-out: Dundee KSS %inh at 1 uM
[1] = target: T1, MSK1 (Homo sapiens, UniProt O75582)
T1 construct: gene RPS6KA5
Procedure: (§1) The METi and RAFi were screened against kinase panels (SelectScreen, Invitrogen; University of Dundee, Division of Signal Transduction Therapy, UK; Upstate Biotechnology/Millipore, Billerica, MA). In these selectivity assays the concentration of ATP was set to the Km value of ATP for each kinase tested to allow for a relative potency comparison between the various kinases. The compounds were tested at 1 µM final concentration. […] Supplementary file pone.0039653.s002.pdf: Figure S2 Kinase Selectivity Screen of RAFi. (A) Kinase selectivity screen (KSS) performed at University of Dundee (Division of Signal Transduction Therapy). Values in % inhibition of phosphorylation given 1 µM of RAFi compared to control. (B) KSS performed at Invitrogen (Selectscreen Service) compared to control. Values in % inhibition of phosphorylation given 1 µM of RAFi. (C) Cell based dose response kinase inhibition of indicated kinases by RAFi. (PDF) Click here for additional data file.

[2] = target: MARK3 (Homo sapiens, UniProt P27448)
Procedure: as §1

[3] = target: T2, PRK2 (Homo sapiens, UniProt Q16513)
T2 construct: gene PKN2
Procedure: as §1

[4] = target: CDK2 (Homo sapiens, UniProt P24941)
Procedure: as §1

[5] = target: AKT2 (Homo sapiens, UniProt P31751)
Procedure: as §1

[6] = target: T3, CAMKKB (Homo sapiens, UniProt Q96RR4)
T3 construct: gene CAMKK2
Procedure: as §1

[7] = target: T4, p38 (Homo sapiens, UniProt Q16539)
T4 construct: gene MAPK14
Procedure: as §1

[8] = target: T5, rat MNB (Rattus norvegicus, UniProt Q63470)
T5 construct: gene Dyrk1a
Procedure: as §1

[9] = target: T6, EEF-2 kinase (Homo sapiens, UniProt O00418)
T6 construct: gene EEF2K
Procedure: as §1

[10] = target: PLK1 (Homo sapiens, UniProt P53350)
Procedure: as §1

[11] = target: T7, PKCa (Homo sapiens, UniProt P17252)
T7 construct: gene PRKCA
Procedure: as §1

[12] = target: T8, MNK1 (Homo sapiens, UniProt Q9BUB5)
T8 construct: gene MKNK1
Procedure: as §1

[13] = target: DYRK3 (Homo sapiens, UniProt O43781)
Procedure: as §1

[14] = target: T9, p38d (Homo sapiens, UniProt O15264)
T9 construct: gene MAPK13
Procedure: as §1

[15] = target: T10, P70S6K (Homo sapiens, UniProt P23443)
T10 construct: gene RPS6KB1
Procedure: as §1

[16] = target: T11, PLK1preactivated (Homo sapiens, UniProt P53350)
T11 construct: gene PLK1
Procedure: as §1

[17] = target: T12, ERK7 (Homo sapiens, UniProt Q8TD08)
T12 construct: gene MAPK15
Procedure: as §1

[18] = target: T13, MLCK (Homo sapiens, UniProt Q15746)
T13 construct: gene MYLK
Procedure: as §1

[19] = target: T14, rabbit MEK1 (Oryctolagus cuniculus, UniProt P29678)
T14 construct: gene MAP2K1
Procedure: as §1

[20] = target: T15, CKIIa (Homo sapiens, UniProt P68400)
T15 construct: gene CSNK2A1
Procedure: as §1

Chain of DYRK3 (O43781 whole entry): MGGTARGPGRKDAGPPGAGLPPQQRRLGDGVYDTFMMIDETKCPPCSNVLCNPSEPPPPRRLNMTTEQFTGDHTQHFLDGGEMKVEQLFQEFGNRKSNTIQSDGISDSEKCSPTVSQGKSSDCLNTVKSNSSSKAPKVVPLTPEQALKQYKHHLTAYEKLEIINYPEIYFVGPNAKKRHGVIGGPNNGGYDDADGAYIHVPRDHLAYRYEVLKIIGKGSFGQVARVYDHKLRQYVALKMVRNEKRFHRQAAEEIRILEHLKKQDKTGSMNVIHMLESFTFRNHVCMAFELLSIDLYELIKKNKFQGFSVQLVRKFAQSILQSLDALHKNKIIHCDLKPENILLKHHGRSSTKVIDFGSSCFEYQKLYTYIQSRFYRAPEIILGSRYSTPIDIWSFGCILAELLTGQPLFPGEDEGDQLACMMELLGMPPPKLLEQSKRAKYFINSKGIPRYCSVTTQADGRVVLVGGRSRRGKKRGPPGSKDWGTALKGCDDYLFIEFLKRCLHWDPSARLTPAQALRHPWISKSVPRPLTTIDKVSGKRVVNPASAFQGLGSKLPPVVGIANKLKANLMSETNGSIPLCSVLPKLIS
T3 sequence (Q96RR4 whole entry): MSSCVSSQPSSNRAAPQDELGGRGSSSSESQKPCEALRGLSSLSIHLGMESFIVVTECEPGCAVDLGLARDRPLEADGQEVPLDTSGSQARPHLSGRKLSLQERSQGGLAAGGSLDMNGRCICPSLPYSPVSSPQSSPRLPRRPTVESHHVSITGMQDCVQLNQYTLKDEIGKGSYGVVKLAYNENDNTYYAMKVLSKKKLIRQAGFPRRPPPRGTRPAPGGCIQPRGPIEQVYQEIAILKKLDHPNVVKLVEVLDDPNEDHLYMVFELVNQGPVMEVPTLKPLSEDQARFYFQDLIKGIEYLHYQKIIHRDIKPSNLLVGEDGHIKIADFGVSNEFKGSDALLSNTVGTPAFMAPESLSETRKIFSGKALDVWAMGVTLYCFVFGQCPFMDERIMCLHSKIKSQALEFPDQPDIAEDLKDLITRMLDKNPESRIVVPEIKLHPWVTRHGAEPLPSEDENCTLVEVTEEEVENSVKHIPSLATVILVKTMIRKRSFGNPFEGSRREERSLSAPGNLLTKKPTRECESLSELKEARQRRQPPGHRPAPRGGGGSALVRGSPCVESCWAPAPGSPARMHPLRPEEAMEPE
T14 sequence (P29678 whole entry): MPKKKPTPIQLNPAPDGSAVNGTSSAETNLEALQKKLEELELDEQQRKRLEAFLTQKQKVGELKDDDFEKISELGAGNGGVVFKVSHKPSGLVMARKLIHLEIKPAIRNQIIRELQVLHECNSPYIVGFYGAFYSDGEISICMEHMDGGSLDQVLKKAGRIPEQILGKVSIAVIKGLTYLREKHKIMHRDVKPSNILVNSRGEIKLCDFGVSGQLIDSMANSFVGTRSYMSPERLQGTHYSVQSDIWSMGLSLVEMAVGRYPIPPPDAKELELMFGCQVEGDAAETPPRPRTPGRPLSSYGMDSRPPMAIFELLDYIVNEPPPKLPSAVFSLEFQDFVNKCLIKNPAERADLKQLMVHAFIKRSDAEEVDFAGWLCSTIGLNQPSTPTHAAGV
Chain of MARK3 (P27448 whole entry): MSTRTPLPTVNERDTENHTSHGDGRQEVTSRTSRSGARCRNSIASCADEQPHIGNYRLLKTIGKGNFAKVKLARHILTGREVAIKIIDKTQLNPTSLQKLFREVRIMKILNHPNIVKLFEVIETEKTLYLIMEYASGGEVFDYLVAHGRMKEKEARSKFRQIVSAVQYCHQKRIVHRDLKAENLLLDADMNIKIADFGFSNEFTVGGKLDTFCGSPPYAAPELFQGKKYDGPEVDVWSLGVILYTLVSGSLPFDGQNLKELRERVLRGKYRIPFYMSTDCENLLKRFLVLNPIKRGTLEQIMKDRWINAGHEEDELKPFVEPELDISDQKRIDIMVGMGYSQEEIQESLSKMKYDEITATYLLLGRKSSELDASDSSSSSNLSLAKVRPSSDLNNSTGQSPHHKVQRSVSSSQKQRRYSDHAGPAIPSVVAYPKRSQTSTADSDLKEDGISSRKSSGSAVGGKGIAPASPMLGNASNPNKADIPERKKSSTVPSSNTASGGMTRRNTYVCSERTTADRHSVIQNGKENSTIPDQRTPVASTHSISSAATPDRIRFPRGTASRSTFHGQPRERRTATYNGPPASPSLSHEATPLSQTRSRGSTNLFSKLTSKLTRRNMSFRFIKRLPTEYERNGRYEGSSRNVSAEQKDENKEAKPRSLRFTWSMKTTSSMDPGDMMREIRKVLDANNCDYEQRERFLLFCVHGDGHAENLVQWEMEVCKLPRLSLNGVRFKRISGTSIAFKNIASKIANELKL
T12 sequence (Q8TD08 whole entry): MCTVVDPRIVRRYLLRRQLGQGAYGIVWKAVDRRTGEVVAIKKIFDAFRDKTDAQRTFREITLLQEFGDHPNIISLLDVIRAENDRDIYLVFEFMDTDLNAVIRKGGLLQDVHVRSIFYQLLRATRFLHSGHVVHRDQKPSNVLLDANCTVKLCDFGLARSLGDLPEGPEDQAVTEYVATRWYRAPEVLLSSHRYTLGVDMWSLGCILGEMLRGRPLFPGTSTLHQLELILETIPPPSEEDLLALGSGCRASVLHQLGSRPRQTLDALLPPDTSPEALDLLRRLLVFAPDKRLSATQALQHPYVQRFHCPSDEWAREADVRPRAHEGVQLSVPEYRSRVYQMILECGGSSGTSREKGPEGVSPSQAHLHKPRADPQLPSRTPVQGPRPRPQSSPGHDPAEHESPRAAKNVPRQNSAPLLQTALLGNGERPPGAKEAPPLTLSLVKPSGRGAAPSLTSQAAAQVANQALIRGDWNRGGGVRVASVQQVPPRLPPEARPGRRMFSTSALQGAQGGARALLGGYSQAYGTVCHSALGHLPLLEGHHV
T2 sequence (Q16513 whole entry): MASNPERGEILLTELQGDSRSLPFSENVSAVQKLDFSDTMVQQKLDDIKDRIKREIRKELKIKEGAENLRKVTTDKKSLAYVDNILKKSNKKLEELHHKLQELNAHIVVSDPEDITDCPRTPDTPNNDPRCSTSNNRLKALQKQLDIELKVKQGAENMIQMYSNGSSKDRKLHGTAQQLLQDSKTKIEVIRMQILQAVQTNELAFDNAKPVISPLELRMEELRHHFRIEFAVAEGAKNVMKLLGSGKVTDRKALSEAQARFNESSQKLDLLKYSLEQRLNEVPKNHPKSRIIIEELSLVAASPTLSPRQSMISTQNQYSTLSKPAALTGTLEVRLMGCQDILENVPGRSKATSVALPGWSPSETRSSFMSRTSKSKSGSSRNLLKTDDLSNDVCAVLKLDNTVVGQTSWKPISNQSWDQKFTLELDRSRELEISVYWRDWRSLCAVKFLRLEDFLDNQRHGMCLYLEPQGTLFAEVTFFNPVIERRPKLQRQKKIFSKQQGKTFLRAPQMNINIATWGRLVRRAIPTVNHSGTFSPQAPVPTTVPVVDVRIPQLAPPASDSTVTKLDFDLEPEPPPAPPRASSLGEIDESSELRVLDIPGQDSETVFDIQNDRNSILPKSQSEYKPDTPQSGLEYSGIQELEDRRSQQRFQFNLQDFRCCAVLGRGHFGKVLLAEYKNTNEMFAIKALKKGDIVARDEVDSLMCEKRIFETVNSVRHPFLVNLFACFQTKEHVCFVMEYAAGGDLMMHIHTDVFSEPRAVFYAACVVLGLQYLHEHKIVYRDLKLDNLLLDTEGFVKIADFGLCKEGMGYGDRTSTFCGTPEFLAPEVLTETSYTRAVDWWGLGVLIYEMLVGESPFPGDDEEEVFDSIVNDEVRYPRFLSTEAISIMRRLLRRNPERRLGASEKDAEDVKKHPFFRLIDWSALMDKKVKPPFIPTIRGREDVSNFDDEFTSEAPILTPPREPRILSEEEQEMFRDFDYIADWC
Chain of AKT2 (P31751 whole entry): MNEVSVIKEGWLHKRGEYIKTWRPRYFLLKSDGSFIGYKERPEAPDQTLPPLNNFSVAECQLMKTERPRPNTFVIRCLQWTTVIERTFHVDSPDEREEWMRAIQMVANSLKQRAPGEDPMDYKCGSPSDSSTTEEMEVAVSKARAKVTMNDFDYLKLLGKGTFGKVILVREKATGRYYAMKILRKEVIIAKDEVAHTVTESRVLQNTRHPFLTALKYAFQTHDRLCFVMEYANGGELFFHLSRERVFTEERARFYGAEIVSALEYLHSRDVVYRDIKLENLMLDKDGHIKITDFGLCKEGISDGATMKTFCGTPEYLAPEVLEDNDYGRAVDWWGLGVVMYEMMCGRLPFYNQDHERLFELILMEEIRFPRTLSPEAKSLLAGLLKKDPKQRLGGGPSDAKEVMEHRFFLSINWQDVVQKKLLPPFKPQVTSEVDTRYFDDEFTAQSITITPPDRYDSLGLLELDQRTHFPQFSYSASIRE
Chain of PLK1 (P53350 whole entry): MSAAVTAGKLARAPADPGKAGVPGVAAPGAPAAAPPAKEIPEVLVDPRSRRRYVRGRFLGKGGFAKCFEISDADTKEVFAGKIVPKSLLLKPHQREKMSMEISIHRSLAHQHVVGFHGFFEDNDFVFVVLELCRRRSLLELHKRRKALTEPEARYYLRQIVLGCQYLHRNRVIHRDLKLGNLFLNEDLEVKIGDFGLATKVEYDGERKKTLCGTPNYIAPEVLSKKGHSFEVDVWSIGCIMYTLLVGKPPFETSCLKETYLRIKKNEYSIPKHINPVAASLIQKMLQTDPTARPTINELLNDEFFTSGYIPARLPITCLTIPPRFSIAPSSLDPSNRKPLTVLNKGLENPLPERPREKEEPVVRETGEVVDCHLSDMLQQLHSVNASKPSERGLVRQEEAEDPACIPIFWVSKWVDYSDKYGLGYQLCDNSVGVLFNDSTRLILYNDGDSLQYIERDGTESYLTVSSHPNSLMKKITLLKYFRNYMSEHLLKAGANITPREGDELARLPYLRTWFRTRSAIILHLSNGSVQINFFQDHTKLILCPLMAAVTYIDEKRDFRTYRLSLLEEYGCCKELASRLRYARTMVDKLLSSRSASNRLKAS
T11 sequence (P53350 whole entry): as above

inhibition at 1 µM [1]: 14%
inhibition at 1 µM [2]: 20%
inhibition at 1 µM [3]: 16%
inhibition at 1 µM [4]: 38%
inhibition at 1 µM [5]: 28%
inhibition at 1 µM [6]: 16%
inhibition at 1 µM [7]: 96%
inhibition at 1 µM [8]: 4%
inhibition at 1 µM [9]: 0%
inhibition at 1 µM [10]: 47%
inhibition at 1 µM [11]: 53%
inhibition at 1 µM [12]: 7%
inhibition at 1 µM [13]: 11%
inhibition at 1 µM [14]: 9%
inhibition at 1 µM [15]: -5%
inhibition at 1 µM [16]: 64%
inhibition at 1 µM [18]: 22%
inhibition at 1 µM [19]: 34%
inhibition at 1 µM [20]: -2%
Compound: N#CCCNc1nccc(-c2cn(CC(F)F)nc2-c2cnc3[nH]ccc3c2)n1 [RAFi, PF-04880594]
inhibition at 1 µM [17]: 16%
